Measured values reported in PMC3814616, “BRAF inhibitors suppress apoptosis through off-target inhibition of JNK signaling” (eLife, 2013).
pIC50: −log10 of the molar value. Read-outs that look alike come from different tables or passages of the source.

Assays:
MAP3K2 = molecular target: T1, MAP3K2 (Homo sapiens, UniProt Q9Y2U5); test: Quantitative competitive binding assay (KINOMEscan); settings: for remaining binding at 0.05 µM: read-out: Percent control (50 nM); for remaining binding at 0.2 µM: read-out: Percent control (200 nM); for remaining binding at 1 µM: read-out: Percent control (1000 nM); for remaining binding at 10 µM: read-out: Percent control (10 μM)
T1 construct: purchased KINOMEscan (DiscoveRx), San Diego, CA
T1 sequence (Q9Y2U5 1-619): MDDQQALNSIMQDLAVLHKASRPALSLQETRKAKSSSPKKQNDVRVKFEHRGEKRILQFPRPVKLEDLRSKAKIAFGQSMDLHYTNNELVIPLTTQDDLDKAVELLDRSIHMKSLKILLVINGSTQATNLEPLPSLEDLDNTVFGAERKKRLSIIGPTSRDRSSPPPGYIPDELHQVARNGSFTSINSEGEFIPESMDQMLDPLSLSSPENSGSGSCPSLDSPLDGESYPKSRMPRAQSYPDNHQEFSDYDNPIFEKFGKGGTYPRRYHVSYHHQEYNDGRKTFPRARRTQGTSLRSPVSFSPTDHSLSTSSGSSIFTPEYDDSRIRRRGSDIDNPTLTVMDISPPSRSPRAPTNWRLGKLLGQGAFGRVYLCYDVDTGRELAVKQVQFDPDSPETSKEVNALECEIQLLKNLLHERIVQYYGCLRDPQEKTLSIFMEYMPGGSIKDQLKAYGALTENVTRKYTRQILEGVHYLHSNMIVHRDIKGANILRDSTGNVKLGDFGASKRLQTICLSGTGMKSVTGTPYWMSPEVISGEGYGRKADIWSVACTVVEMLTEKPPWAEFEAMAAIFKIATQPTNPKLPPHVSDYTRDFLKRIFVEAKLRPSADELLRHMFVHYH

BRK (PTK6) = BRK (PTK6) (Homo sapiens, UniProt Q13882); test: as above; settings: for pIC50: estimated Kd, averaged pointwise estimates, transformed Hill equation, read-out: Calculated estimate of IC50; for remaining binding at 0.05 µM: read-out: Percent control (50 nM); for remaining binding at 0.2 µM: read-out: Percent control (200 nM); for remaining binding at 1 µM: read-out: Percent control (1000 nM); for remaining binding at 10 µM: read-out: Percent control (10 μM)
MLK1 (MAP3K9) = molecular target: T2, MLK1 (MAP3K9) (Homo sapiens, UniProt P80192); settings: read-out: Published biochemical IC50, cited from earlier work
T2 construct: purchased KINOMEscan (DiscoveRx), San Diego, CA

MEK3 (MAP2K3) = molecular target: T3, MEK3 (MAP2K3) (Homo sapiens, UniProt P46734); test: Quantitative competitive binding assay (KINOMEscan); settings: for remaining binding at 0.05 µM: read-out: Percent control (50 nM); for remaining binding at 0.2 µM: read-out: Percent control (200 nM); for remaining binding at 1 µM: read-out: Percent control (1000 nM); for remaining binding at 10 µM: read-out: Percent control (10 μM)
T3 construct: purchased KINOMEscan (DiscoveRx), San Diego, CA

STK39 = molecular target: T4, STK39 (Homo sapiens, UniProt Q9UEW8); test: as above; settings: for remaining binding at 0.05 µM: read-out: Percent control (50 nM); for remaining binding at 0.2 µM: read-out: Percent control (200 nM); for remaining binding at 1 µM: read-out: Percent control (1000 nM); for remaining binding at 10 µM: read-out: Percent control (10 μM)
T4 construct: purchased KINOMEscan (DiscoveRx), San Diego, CA

MST1 (STK4) = molecular target: T5, MST1 (STK4) (Homo sapiens, UniProt Q13043); test: as above; settings: for remaining binding at 0.05 µM: read-out: Percent control (50 nM); for remaining binding at 0.2 µM: read-out: Percent control (200 nM); for remaining binding at 1 µM: read-out: Percent control (1000 nM); for remaining binding at 10 µM: read-out: Percent control (10 μM)
T5 construct: purchased KINOMEscan (DiscoveRx), San Diego, CA
T5 sequence (Q13043 1-487): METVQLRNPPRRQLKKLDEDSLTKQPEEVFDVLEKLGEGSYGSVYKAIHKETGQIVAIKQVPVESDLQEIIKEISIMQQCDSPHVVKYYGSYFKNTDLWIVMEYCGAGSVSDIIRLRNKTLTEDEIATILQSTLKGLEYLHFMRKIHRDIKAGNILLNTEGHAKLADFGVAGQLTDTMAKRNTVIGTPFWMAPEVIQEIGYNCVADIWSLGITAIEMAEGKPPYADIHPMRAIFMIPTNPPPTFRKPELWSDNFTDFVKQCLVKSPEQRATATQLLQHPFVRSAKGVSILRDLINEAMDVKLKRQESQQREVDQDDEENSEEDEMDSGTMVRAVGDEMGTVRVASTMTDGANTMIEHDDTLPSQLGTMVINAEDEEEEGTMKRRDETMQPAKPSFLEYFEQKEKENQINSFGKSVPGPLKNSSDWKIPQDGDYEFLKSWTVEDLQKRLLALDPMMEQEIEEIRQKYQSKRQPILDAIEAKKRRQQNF

MAP4K2 = molecular target: T6, MAP4K2 (Homo sapiens, UniProt Q12851); test: as above; settings: for remaining binding at 0.05 µM: read-out: Percent control (50 nM); for remaining binding at 0.2 µM: read-out: Percent control (200 nM); for remaining binding at 1 µM: read-out: Percent control (1000 nM); for remaining binding at 10 µM: read-out: Percent control (10 μM)
T6 construct: purchased KINOMEscan (DiscoveRx), San Diego, CA
T6 sequence (Q12851 1-820): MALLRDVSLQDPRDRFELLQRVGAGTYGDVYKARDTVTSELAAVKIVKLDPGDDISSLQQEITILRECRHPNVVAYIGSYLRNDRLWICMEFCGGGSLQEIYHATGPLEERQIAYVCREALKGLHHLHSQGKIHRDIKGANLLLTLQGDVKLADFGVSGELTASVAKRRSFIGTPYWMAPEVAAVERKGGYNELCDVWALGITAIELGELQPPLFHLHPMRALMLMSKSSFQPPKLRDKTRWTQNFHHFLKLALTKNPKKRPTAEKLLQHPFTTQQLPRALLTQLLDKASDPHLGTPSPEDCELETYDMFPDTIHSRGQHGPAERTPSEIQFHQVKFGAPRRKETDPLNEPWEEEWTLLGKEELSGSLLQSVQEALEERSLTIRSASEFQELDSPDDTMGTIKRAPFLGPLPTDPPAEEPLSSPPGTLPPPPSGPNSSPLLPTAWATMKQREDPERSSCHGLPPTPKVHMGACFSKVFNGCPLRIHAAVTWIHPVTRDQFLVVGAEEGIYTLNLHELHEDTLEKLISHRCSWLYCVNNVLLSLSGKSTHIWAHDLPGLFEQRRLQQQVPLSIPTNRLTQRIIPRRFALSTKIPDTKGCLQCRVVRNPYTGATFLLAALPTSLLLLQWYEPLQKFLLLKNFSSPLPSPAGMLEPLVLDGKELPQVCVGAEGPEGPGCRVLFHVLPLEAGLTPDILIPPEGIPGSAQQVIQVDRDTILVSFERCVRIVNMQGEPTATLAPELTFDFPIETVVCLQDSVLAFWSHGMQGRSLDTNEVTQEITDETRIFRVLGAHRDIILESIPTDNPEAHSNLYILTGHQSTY

PAK1 = molecular target: T7, PAK1 (Homo sapiens, UniProt Q13153); test: as above; settings: for remaining binding at 0.05 µM: read-out: Percent control (50 nM); for remaining binding at 0.2 µM: read-out: Percent control (200 nM); for remaining binding at 1 µM: read-out: Percent control (1000 nM); for remaining binding at 10 µM: read-out: Percent control (10 μM)
T7 construct: purchased KINOMEscan (DiscoveRx), San Diego, CA
T7 sequence (Q13153 whole entry): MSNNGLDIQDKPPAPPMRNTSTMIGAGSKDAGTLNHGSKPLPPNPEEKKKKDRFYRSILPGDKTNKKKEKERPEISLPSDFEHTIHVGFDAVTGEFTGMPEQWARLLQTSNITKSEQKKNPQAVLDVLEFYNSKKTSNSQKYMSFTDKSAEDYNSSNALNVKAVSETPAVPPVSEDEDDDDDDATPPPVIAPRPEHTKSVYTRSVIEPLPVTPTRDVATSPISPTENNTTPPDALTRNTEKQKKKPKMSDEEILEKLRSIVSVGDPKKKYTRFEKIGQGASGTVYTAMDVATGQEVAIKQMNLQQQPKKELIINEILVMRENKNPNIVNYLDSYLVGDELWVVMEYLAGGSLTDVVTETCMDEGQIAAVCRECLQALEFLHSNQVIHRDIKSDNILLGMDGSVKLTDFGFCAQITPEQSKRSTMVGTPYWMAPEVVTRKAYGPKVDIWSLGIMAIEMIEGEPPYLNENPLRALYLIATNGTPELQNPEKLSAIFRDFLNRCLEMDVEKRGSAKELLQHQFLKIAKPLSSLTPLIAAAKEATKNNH

T3 sequence (P46734 whole entry): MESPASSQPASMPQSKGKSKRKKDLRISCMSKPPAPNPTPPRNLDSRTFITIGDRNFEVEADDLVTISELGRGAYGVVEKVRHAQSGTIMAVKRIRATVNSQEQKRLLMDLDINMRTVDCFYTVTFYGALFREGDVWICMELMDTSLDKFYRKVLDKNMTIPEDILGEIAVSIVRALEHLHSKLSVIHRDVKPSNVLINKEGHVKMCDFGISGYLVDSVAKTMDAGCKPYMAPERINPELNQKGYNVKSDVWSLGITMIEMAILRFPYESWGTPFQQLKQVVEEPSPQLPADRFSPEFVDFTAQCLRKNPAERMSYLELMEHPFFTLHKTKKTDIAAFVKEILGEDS
Chain of BRK (PTK6) (Q13882 whole entry): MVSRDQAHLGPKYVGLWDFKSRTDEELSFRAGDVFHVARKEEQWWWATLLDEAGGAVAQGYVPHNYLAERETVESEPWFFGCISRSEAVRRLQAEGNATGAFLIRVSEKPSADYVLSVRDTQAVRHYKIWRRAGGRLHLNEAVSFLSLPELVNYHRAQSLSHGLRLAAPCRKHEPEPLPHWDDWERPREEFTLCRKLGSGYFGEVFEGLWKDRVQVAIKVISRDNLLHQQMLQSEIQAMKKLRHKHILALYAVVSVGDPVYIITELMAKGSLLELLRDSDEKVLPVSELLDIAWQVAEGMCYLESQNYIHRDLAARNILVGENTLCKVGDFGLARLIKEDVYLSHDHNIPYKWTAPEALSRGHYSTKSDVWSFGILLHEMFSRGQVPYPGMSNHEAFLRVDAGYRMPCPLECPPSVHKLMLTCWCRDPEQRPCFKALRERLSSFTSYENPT
T2 sequence (P80192 whole entry): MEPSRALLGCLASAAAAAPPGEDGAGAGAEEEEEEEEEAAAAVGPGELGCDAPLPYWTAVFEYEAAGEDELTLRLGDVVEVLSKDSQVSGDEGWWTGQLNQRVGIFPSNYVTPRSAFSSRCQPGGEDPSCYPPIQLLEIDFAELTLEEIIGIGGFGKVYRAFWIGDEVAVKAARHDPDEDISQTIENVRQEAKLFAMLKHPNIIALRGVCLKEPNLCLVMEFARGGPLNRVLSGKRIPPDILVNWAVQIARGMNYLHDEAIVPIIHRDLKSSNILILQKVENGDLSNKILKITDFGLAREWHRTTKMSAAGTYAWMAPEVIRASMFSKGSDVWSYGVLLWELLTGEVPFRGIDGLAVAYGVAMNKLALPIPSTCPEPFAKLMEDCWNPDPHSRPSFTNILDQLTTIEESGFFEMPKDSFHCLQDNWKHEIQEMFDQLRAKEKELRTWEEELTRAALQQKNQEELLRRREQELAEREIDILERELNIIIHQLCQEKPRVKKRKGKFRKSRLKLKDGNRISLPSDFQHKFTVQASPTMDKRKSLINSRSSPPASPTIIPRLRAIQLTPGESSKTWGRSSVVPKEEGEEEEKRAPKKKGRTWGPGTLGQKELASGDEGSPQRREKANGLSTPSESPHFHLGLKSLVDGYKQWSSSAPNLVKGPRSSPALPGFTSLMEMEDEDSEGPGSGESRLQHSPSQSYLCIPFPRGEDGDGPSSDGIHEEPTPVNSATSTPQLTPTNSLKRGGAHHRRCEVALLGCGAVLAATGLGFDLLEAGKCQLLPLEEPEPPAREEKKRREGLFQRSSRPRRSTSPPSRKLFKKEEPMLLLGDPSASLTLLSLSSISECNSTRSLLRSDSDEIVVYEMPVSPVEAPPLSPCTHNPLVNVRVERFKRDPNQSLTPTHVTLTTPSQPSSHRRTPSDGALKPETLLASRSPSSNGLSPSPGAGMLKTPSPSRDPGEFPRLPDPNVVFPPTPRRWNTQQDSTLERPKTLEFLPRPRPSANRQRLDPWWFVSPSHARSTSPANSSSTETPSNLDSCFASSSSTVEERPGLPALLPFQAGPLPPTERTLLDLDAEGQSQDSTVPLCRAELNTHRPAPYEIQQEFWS

Compound | remaining binding at 0.05 µM (MAP3K2) [%] | remaining binding at 0.2 µM (MAP3K2) [%] | remaining binding at 1 µM (MAP3K2) [%] | remaining binding at 10 µM (MAP3K2) [%] | pIC50 (BRK (PTK6)) | remaining binding at 0.05 µM (BRK (PTK6)) [%] | remaining binding at 0.2 µM (BRK (PTK6)) [%] | remaining binding at 1 µM (BRK (PTK6)) [%] | remaining binding at 10 µM (BRK (PTK6)) [%] | remaining binding at 0.05 µM (MEK3 (MAP2K3)) [%] | remaining binding at 0.2 µM (MEK3 (MAP2K3)) [%] | remaining binding at 1 µM (MEK3 (MAP2K3)) [%] | remaining binding at 10 µM (MEK3 (MAP2K3)) [%] | remaining binding at 0.05 µM (STK39) [%] | remaining binding at 0.2 µM (STK39) [%] | remaining binding at 1 µM (STK39) [%] | remaining binding at 10 µM (STK39) [%] | remaining binding at 0.05 µM (MST1 (STK4)) [%] | remaining binding at 0.2 µM (MST1 (STK4)) [%] | remaining binding at 1 µM (MST1 (STK4)) [%] | other results
CCCS(=O)(=O)Nc1ccc(F)c(C(=O)c2c[nH]c3ncc(Cl)cc23)c1F [PLX4720] | 100 | 93 | 87 | 41 | 7.52 | 47 | 14 | 2.4 | 0.2 | 100 | 100 | 100 | 64 | 100 | 100 | 100 | 59 | 100 | 93 | 84 | pIC50 (MLK1 (MAP3K9); ref Tsai et al., 2008): < 5.30; pIC50 (MST1 (STK4); estimated Kd, averaged pointwise estimates, transformed Hill equation, read-out: Calculated estimate of IC50): 5.17; remaining binding at 10 µM (MST1 (STK4)): 55%; remaining binding at 0.05 µM (MAP4K2): 98%; remaining binding at 0.2 µM (MAP4K2): 100%; remaining binding at 1 µM (MAP4K2): 99%; remaining binding at 10 µM (MAP4K2): 67%; remaining binding at 0.05 µM (PAK1): 93%; remaining binding at 0.2 µM (PAK1): 97%; remaining binding at 1 µM (PAK1): 83%; remaining binding at 10 µM (PAK1): 22%
CCCS(=O)(=O)Nc1ccc(F)c(C(=O)c2c[nH]c3ncc(-c4ccc(Cl)cc4)cc23)c1F [vemurafenib] | 91 | 91 | 89 | 83 | 7.17 | 63 | 28 | 6.9 | 0.35 | 100 | 96 | 98 | 54 | 100 | 100 | 97 | 66 | 99 | 83 | 51 | pIC50 (MLK1 (MAP3K9); ref Bollag et al., 2010): < 6.00; remaining binding at 10 µM (MST1 (STK4)): 12%; remaining binding at 0.05 µM (MAP4K2): 99%; remaining binding at 0.2 µM (MAP4K2): 82%; remaining binding at 1 µM (MAP4K2): 95%; remaining binding at 10 µM (MAP4K2): 46%; remaining binding at 0.05 µM (PAK1): 99%; remaining binding at 0.2 µM (PAK1): 98%; remaining binding at 1 µM (PAK1): 91%; remaining binding at 10 µM (PAK1): 46%
